Laboratory results reported in paper PMC8474115 (Journal of Medicinal Chemistry, 2021).
Structures can show the parent of a compound that is named as a salt. Where two headings read alike, the source gives them in different places.

What was measured:
[1] = target: T1, Dopamine D2L (Homo sapiens, UniProt P14416); assay: Eurofins SafetyScreen panel; format: binding
T1 construct: purchased Eurofins (Panlabs) SafetyScreen87 Panel

[2] = target: T2, MAO-A (Homo sapiens, UniProt P21397); assay: Eurofins SafetyScreen panel; format: biochemical
T2 construct: Eurofins

[3] = target: T3, PPARγ (Homo sapiens, UniProt P37231); assay: Eurofins SafetyScreen panel; format: binding
T3 construct: Eurofins (contract assay)

[4] = target: hERG potassium channel (Homo sapiens, UniProt Q12809); assay: in vitro; conditions: %inh
[5] = target: T4, Cannabinoid CB1 (Homo sapiens, UniProt P21554); assay: Eurofins SafetyScreen panel; format: binding
T4 construct: purchased Eurofins (Panlabs) SafetyScreen87 Panel

[6] = target: T5, Neuropeptide Y Y1 (Homo sapiens, UniProt P25929); assay: Eurofins SafetyScreen panel; format: binding
T5 construct: Eurofins (contract screening, SafetyScreen panel) PP223

[7] = target: T6, Dopamine Transporter (DAT) (Homo sapiens, UniProt Q01959); assay: Eurofins SafetyScreen panel; format: binding
T6 construct: Eurofins (contract assay)

[8] = target: T7, Muscarinic M3 (Homo sapiens, UniProt P20309); assay: Eurofins SafetyScreen panel; format: binding
T7 construct: Eurofins (contract screening, SafetyScreen panel) PP223

[9] = target: T8, Melanocortin MC4 (Homo sapiens, UniProt P32245); assay: Eurofins SafetyScreen panel; format: binding
T8 construct: purchased Eurofins (Panlabs) SafetyScreen87 Panel

[10] = target: T9, Protein Tyr Kinase, Insulin receptor (Homo sapiens, UniProt P06213); assay: Eurofins SafetyScreen panel; format: biochemical
T9 construct: Eurofins (contract screening, SafetyScreen panel) PP223

[11] = target: T10, Serotonin 5-HT5A (Homo sapiens, UniProt P47898); assay: Eurofins SafetyScreen panel; format: binding
T10 construct: Eurofins (contract assay) 272100

[12] = target: T11, Serotonin Transporter (SERT) (Homo sapiens, UniProt P31645); assay: Eurofins SafetyScreen panel; format: binding
T11 construct: Eurofins (contract screening, SafetyScreen panel) PP223

[13] = target: T12, Serotonin 5-HT1A (Homo sapiens, UniProt P08908); assay: Eurofins SafetyScreen panel; format: binding
T12 construct: Eurofins (contract assay)
T12 sequence (P08908 1-422): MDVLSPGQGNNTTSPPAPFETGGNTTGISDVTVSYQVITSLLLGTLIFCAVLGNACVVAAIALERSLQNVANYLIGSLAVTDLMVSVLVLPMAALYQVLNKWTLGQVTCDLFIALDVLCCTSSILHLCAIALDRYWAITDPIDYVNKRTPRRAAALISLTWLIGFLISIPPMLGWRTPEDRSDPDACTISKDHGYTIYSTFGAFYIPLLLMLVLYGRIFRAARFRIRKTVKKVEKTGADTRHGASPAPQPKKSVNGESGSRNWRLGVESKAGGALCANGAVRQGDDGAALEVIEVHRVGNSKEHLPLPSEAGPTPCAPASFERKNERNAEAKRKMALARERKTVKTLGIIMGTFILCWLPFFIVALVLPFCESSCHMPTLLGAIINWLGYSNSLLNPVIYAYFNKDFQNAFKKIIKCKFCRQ

[14] = target: T13, Muscarinic M4 (Homo sapiens, UniProt P08173); assay: Eurofins SafetyScreen panel; format: binding
T13 construct: Eurofins (contract screening, SafetyScreen panel) PP223

[15] = target: T14, Muscarinic M2 (Homo sapiens, UniProt P08172); assay: Eurofins SafetyScreen panel; format: binding
T14 construct: Eurofins (contract screening, SafetyScreen panel) PP223

[16] = target: T15, Cannabinoid CB2 (Homo sapiens, UniProt P34972); assay: Eurofins SafetyScreen panel; format: binding
T15 construct: purchased Eurofins (Panlabs) SafetyScreen87 Panel

[17] = target: T16, Leukotriene, Cysteinyl CysLT1 (Homo sapiens, UniProt Q9Y271); assay: Eurofins SafetyScreen panel; format: binding
T16 construct: purchased Eurofins (Panlabs) SafetyScreen87 Panel

[18] = target: T17, COX-1 (Homo sapiens, UniProt P23219); assay: Eurofins SafetyScreen panel; format: biochemical
T17 construct: Eurofins

[19] = target: T18, Histamine H3 (Homo sapiens, UniProt Q9Y5N1); assay: Eurofins SafetyScreen panel; format: binding
T18 construct: purchased Eurofins (Panlabs) SafetyScreen87 Panel

[20] = target: T19, Vasopressin V1A (Homo sapiens, UniProt P37288); assay: Eurofins SafetyScreen panel; format: binding
T19 construct: Eurofins (contract screening, SafetyScreen panel) PP223

[21] = target: T20, Adrenergic β2 (Homo sapiens, UniProt P07550); assay: Eurofins SafetyScreen panel; format: binding
T20 construct: Eurofins (contract screening, SafetyScreen panel) PP223

[22] = target: T21, Opiate σ1 (OP1, DOP) (Homo sapiens, UniProt P41143); assay: Eurofins SafetyScreen panel; format: binding; conditions: read-out: %inh
T21 construct: Eurofins (contract assay)

[23] = target: T22, Muscarinic M1 (Homo sapiens, UniProt P11229); assay: Eurofins SafetyScreen panel; format: binding
T22 construct: Eurofins (contract screening, SafetyScreen panel) PP223
T22 sequence (P11229 1-460): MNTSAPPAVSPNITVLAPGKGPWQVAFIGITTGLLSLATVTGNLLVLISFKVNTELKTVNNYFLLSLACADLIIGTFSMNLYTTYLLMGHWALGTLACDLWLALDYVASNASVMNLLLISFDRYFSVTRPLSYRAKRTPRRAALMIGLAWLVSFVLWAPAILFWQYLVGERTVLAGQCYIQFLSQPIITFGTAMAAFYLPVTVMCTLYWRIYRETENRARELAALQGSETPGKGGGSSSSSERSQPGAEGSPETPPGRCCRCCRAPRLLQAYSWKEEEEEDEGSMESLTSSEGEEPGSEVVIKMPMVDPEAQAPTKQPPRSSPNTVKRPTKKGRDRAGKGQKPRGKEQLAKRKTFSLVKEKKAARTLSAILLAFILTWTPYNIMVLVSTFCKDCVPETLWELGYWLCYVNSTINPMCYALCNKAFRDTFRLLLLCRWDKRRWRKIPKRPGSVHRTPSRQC

[24] = target: T23, Adenosine A1 (Homo sapiens, UniProt P30542); assay: Eurofins SafetyScreen panel; format: binding
T23 construct: Eurofins (contract screening, SafetyScreen panel) PP223

[25] = read-out: %inh, 10 μM, additional batch

T20 sequence (P07550 whole entry): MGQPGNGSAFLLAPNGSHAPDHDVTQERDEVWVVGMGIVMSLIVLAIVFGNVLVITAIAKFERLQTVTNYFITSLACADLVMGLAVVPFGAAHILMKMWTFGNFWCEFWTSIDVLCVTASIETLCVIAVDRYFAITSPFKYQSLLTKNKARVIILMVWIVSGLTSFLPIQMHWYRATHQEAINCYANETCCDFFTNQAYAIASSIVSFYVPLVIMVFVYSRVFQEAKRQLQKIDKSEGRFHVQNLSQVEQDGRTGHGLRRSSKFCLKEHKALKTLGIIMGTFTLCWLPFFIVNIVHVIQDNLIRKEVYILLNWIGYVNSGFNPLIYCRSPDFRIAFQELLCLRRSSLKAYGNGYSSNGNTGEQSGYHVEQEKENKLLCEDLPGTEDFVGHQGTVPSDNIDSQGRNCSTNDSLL
Sequence of hERG potassium channel (Q12809 whole entry): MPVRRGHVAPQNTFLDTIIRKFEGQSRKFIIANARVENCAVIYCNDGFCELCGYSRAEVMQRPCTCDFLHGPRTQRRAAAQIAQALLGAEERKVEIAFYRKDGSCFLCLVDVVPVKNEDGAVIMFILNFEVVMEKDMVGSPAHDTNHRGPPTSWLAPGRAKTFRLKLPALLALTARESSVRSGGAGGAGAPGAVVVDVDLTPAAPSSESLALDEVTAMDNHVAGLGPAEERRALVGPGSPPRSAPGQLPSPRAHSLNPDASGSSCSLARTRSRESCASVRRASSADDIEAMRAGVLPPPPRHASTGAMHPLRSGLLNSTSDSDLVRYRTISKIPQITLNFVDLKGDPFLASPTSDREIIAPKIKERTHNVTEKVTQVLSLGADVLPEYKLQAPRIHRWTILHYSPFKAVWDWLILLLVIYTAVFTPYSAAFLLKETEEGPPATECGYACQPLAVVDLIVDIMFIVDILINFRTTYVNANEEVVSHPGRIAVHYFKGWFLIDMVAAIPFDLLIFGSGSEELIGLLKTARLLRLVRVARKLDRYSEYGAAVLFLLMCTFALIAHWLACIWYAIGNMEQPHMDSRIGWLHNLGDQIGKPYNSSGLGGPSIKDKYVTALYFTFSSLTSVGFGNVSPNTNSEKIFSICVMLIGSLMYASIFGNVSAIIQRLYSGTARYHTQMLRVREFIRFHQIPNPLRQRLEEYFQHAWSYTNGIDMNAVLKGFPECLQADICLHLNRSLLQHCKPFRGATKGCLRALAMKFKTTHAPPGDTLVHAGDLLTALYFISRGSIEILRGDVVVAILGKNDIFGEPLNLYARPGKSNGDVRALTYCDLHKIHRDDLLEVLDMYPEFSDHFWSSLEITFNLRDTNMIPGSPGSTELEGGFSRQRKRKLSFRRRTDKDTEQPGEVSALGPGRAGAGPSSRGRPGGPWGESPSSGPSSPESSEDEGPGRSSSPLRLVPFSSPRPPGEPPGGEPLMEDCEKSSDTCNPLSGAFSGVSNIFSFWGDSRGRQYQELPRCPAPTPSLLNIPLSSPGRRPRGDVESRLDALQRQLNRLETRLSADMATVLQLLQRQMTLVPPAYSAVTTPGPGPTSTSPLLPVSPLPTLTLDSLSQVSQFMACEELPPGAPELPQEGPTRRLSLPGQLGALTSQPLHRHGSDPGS
T10 sequence (P47898 whole entry): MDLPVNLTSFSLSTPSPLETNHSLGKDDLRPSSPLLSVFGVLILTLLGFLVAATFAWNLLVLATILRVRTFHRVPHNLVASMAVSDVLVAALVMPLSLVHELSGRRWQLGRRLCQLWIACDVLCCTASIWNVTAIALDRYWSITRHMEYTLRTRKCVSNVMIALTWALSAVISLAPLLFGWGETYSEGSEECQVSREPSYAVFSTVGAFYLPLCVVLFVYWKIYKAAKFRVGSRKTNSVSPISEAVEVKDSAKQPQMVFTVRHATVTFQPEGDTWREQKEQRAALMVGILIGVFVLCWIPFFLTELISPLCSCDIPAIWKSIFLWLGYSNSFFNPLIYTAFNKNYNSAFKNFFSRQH
T6 sequence (Q01959 whole entry): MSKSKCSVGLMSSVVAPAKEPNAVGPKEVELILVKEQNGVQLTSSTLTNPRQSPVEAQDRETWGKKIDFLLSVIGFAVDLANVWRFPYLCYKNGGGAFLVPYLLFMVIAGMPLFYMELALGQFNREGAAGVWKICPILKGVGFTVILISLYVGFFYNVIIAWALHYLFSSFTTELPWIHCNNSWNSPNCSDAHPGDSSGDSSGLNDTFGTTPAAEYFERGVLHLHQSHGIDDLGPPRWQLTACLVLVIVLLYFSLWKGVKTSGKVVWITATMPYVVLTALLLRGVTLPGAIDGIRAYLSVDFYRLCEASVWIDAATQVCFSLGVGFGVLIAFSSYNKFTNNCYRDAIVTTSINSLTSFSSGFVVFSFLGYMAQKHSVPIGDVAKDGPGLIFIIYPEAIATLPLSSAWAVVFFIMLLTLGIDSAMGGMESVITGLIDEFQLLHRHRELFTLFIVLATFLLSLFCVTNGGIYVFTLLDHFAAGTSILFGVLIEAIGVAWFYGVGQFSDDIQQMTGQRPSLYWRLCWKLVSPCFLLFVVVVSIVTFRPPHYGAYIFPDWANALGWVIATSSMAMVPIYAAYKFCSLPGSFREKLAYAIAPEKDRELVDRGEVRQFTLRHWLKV
T5 sequence (P25929 whole entry): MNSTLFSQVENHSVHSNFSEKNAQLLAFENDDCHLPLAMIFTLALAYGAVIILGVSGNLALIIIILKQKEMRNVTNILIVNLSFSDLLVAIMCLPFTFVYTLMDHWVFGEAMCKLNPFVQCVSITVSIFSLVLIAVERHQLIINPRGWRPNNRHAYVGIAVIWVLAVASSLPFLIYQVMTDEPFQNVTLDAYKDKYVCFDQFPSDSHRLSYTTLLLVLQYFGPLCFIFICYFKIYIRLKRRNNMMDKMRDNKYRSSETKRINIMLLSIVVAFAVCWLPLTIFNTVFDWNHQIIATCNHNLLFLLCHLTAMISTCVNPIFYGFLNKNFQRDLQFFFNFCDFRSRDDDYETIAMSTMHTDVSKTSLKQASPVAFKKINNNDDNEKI
T13 sequence (P08173 whole entry): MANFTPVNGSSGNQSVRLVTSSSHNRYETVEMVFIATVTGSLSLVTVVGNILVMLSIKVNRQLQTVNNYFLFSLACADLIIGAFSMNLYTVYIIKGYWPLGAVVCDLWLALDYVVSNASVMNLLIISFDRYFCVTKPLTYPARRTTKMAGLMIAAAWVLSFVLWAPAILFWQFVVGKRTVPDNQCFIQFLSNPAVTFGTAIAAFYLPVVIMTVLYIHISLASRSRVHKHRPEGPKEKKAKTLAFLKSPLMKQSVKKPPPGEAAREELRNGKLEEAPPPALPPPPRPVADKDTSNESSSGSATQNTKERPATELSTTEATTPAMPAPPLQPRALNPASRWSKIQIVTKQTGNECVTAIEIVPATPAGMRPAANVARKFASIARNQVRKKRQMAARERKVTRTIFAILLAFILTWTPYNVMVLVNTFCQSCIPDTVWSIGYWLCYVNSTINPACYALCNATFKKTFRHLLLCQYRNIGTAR
T1 sequence (P14416 whole entry): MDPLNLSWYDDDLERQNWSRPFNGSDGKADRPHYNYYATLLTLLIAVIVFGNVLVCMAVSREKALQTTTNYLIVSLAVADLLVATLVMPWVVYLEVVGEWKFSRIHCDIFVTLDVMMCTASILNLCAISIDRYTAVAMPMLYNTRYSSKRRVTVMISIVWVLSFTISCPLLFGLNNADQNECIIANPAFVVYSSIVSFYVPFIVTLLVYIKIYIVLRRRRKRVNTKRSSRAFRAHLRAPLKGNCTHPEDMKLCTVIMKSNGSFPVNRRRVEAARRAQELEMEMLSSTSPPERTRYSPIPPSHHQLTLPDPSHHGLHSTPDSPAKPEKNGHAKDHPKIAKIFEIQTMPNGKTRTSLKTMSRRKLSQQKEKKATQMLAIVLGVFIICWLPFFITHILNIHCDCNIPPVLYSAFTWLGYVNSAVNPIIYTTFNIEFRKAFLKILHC
T21 sequence (P41143 whole entry): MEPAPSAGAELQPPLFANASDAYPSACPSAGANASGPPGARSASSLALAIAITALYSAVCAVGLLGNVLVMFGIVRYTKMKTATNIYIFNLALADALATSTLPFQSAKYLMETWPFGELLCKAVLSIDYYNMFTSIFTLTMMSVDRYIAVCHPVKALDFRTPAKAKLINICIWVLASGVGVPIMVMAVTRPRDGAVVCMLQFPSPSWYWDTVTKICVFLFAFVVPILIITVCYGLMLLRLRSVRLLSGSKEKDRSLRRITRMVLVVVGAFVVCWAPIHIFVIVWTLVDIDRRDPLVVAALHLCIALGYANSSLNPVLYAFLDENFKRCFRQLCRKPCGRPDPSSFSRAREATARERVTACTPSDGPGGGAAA
T15 sequence (P34972 whole entry, looked up): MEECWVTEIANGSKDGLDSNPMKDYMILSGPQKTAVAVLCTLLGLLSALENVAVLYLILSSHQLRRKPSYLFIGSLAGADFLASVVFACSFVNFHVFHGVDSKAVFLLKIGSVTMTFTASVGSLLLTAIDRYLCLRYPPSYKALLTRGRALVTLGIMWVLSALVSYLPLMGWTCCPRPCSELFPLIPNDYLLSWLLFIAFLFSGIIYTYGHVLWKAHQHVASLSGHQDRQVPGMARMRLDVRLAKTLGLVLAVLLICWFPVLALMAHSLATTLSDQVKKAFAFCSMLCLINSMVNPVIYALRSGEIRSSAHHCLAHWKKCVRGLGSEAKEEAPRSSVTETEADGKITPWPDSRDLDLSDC
T16 sequence (Q9Y271 whole entry): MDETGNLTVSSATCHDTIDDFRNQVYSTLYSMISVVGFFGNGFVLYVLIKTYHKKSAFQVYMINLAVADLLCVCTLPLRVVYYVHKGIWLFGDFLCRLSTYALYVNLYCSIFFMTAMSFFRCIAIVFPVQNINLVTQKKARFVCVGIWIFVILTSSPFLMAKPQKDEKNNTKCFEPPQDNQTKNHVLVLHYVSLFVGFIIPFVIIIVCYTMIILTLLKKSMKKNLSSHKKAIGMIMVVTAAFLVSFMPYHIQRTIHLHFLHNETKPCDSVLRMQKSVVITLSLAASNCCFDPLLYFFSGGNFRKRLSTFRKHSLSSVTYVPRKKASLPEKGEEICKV

O=S(=O)(c1cccc(F)c1)n1ccc2c(N3CCNCC3)nc3ccccc3c21 [FPPQ, 1-[(3-Fluorophenyl)sulfonyl]-4-(piperazin-1-yl)-1H-pyrrolo[3,2-c]quinoline dihydrochloride]
inhibition at 10 µM [1]: 46% | inhibition at 10 µM [2]: 12% | inhibition at 10 µM [3]: 28% | inhibition at 0.01 µM ([4]; 10 nM): 9% | inhibition at 0.1 µM ([4]; 0.1 μM): 9% | inhibition at 1 µM ([4]; 1 μM): 32% | inhibition at 10 µM [4]: 107% | inhibition at 10 µM ([4]; additional batch): 101% | inhibition at 10 µM [5]: 35% | inhibition at 10 µM [6]: 37% | IC50 [7]: 1370 nM | inhibition at 0.01 µM ([7]; read-out: %inh, 10 nM): 2% | inhibition at 0.1 µM ([7]; read-out: %inh, 0.1 μM): 6% | inhibition at 1 µM ([7]; read-out: %inh, 1 μM): 31% | inhibition at 10 µM ([7]; read-out: %inh, 10 μM): 101% | inhibition at 10 µM [7, 25]: 98% | inhibition at 10 µM [8]: 43% | inhibition at 10 µM [9]: 27% | inhibition at 10 µM [10]: -6% | IC50 [11]: 5.58 µM | inhibition at 0.1 µM ([11]; read-out: %inh, 0.1 μM): 1% | inhibition at 10 µM ([11]; read-out: %inh, 10 μM): 64% | inhibition at 10 µM [11, 25]: 61% | inhibition at 100 µM ([11]; read-out: %inh, 100 μM): 98% | inhibition at 10 µM [12]: 18% | IC50 [13]: 860 nM | Ki [13]: 490 nM | inhibition at 0.01 µM ([13]; read-out: %inh, 10 nM): -2% | inhibition at 0.1 µM ([13]; read-out: %inh, 0.1 μM): 16% | inhibition at 1 µM ([13]; read-out: %inh, 1 μM): 53% | inhibition at 10 µM ([13]; read-out: %inh, 10 μM): 87% | inhibition at 10 µM [13, 25]: 91% | inhibition at 10 µM [14]: 8% | inhibition at 10 µM [15]: 5% | inhibition at 10 µM [16]: -21% | inhibition at 10 µM [17]: 10% | inhibition at 10 µM [18]: -6% | inhibition at 10 µM [19]: 26% | inhibition at 10 µM [20]: -18% | IC50 [21]: 120 nM | Ki [21]: 85 nM | inhibition at 0.01 µM ([21]; 10 nM): 9% | inhibition at 0.1 µM ([21]; 0.1 μM): 43% | inhibition at 1 µM ([21]; 1 μM): 93% | inhibition at 10 µM [21]: 103% | inhibition at 10 µM ([21]; additional batch): 99% | inhibition at 10 µM [22]: 7% | IC50 [23]: 7.89 µM | Ki [23]: 1940 nM | inhibition at 0.1 µM ([23]; read-out: %inh): 3% | inhibition at 1 µM ([23]; read-out: %inh): 13% | inhibition at 100 µM ([23]; read-out: %inh): 98% | inhibition at 10 µM [24]: 29%
